Numbers after ± are expanded uncertainties.
Columns and labels:
[1] = 298.15 K; 101.33 kPa; Liquid; Vibrating tube method
[2] = refractive index (Na D-line) (dimensionless); conditions: 298.15 K; 101.33 kPa; Liquid; Standard Abbe refractometry

mass density [1] [kg/m3] | refractive index [2] | SMILES
781.4 ± 16 | 1.375 ± 0.012 | CC(C)O [propan-2-ol]
 | 1.3325 ± 0.012 | O [water]
867.6 ± 16 | 1.3701 ± 0.012 | CC(=O)OC(C)C [1-methylethyl ethanoate]

Reference: the NIST ThermoML archive (doi:10.1021/acs.jced.8b00844)
